These are literature values, as cited in article PMC5572576 (The Lancet. Oncology, 2017).

The target in this data set is anaplastic lymphoma kinase (ALK). Conditions: panel of 78 kinases; cited from earlier work.

As for `CCc1nc(C(N)=O)c(Nc2ccc(N3CCC(N4CCN(C)CC4)CC3)c(OC)c2)nc1NC1CCOCC1` [gilteritinib], the kinase inhibition entry is on record as “strong inhibitor”.
